Reference: US20260185980A1, “METHOD OF PREVENTING AND/OR REDUCING METASTASIS OF TUMOR CELLS, PREVENTING OR REDUCING SENESCENCE, INHIBITING DIFFERENTIATION AND OF REDUCING INFLAMMATION” (Albert-Ludwigs-Universitaet, priority 2022, published 2026)
Peptide text beside a SMILES is read from it. * marks the point of attachment. Cbz = O=C(OCc1ccccc1)*; CH2F = FC*

What was measured:
[1] = target: T1, CAD (Homo sapiens, UniProt O76075); test: Assay A: Inhibition of the CAD-dependent DNA-damage response (DDR), γH2AX Western blot; format: cell-based; settings: HeLa229-Tir1-iCAD-mAID-GFP cells, compound 10 μM pre-incubated 1 hour, auxin 5 μM 4 hours
T1 construct: endogenous in cells; host or cells: HeLa229-Tir1-iCAD-mAID-GFP cells
T1 sequence (O76075 1-338): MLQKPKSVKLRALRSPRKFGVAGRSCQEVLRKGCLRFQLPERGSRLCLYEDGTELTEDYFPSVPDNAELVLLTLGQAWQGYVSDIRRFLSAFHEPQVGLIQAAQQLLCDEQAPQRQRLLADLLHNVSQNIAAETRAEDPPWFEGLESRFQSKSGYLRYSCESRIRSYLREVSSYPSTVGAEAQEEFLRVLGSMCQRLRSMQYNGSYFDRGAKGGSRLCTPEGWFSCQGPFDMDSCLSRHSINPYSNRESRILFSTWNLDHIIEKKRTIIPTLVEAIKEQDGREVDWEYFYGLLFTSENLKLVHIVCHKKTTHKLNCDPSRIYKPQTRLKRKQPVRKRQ
Description: Cells were seeded, pre-incubated with the individual compounds and treated with auxin. The DDR (a consequence of CAD-activity) was measured by Western blotting for the marker γH2AX. […] Such preferred compounds are: MB4, MB26; MB33; MB37; CBN16; CBN17; CBN40; CBN62; CBN65; CBN66; CBN68; CD9 and CD22.
FIG. 11 Confirmation of CAD-inhibition: auxin-dependent DDR. HeLa229-Tir1-iCAD-mAID-GFP cells were seeded on a 48-well plate (50,000 cells/well). 24 hours later, cells were pre-incubated (or not) with the indicated compounds (Comp, 10 μM) for 1 hour, followed by auxin treatment [5 μM] for 4 hours. Cells were lysed in Laemmli buffer and lysates were loaded onto SDS-PAGE followed by Western blotting against the indicated proteins. The DNA damage marker γH2AX was used as an indicator of CAD activity. The two left lanes of each gel are negative and positive controls (without and with auxin but without compound; instead, DMSO was used as solvent control). Compounds are indicated at the top.

[2] = target: T2, caspase-activated CAD (Homo sapiens, UniProt O76075); test: Assay B: Inhibition of caspase-activated CAD (ABT-737 plus S63845, γH2AX); format: cell-based; settings: HeLa229-CTRL3 cells, compound pre-treatment 1 hour, ABT-737 50 nM plus S63845 250 nM 2.5 hours
T2 construct: endogenous in cells; host or cells: HeLa229-CTRL3 cells (LentiCRISPRV2_puro with non-targeted gRNA)
T2 sequence (O76075 1-338): T1 sequence (O76075 1-338)
Description: FIG. 12 Activity of compounds against caspase-activated CAD A, HeLa229-CTRL3 cells (transduced with a LentiCRISPRV2_puro virus encoding a non-targeted gRNA) or Hela229 cells transduced with a CAD-targeted LentiCrisprV2 virus (resulting in CAD-deficient cells (CAD KO)) were seeded as described in FIG. 11 and stimulated with […] ABT-737 [50 nM] plus S63845 [250 nM] for 2.5 hours the next day. Subsequent analysis of the cells was performed as described in FIG. 11.
FIG. 12B, HeLa229-CTRL3 cells were seeded as in A and pre-treated (or not) with the indicated compounds and concentrations (Comp) for 1 hour, followed by treatment with ABT-737 plus […] for 2.5 hours. Proteins were detected as described in FIG. 11.
While in the screening we activated CAD with auxin-induced degradation of its inhibitor, CAD is physiologically activated by caspases. […] Test compounds were added 1 h previously. The activity of CAD was measured by the DDR as above (γH2AX). […] The compounds that will be used to inhibit CAD are shown in boxes. Such preferred compounds are: CBN16; CBN17; CBN62; CBN65; CBN66; CBN68; MB4; CD9; CD22 and MB26.

[3] = test system: HeLa cells; test: Chromosomal missegregation (CIN) and micronuclei in cancer cells; format: cell-based, human; settings: cells incubated for one day with caspase-inhibitor
Text: A, the various pictures of chromosomal missegregation/misalignment are shown as examples (left) and enumerated in HeLa cells (cervical carcinoma line; ctrl., control; CAD, lacking CAD; STING, lacking STING; STING is not relevant to this invention).
C, missegregation in HeLa cells with inhibition in the mitochondrial apoptosis apparatus. Symbols as in A. zVAD-fmk is a small molecule pan-caspase-inhibitor. Apaf-1 is an adapter protein of caspase-9 that is required for caspase-activation upon release of cytochrome c from mitochondria. Both Bax and Bak can directly release cytochrome c, and the presence of at least one of them is required for mitochondrial apoptosis. Bcl-XL is a mitochondrial protein that blocks the activation and activity of Bax and Bak and thereby inhibits apoptosis. […]
Metastasis is linked in the literature to chromosomal instability (CIN), most likely because DNA-ligands are generated that stimulate the cells. […] This is clear because cancer cells modified to lack CAD or components of the (CAD-activating) mitochondrial apoptosis apparatus, or where apoptosis signaling was blocked using a chemical caspase inhibitor (zVAD-fmk), all show reduced CIN (measured as chromosomal missegregation, for instance as chromatin-bridges in dividing cells) and numbers of MN (FIG. 1). […]

[4] = test system: cancer cells; test: Aggressive cancer growth in vitro (migration, invasion through a basement membrane, colony formation on soft agar); format: cell-based; settings: caspase-inhibition by the pan-caspase-inhibitor
Text: A, migratory activity of cells with or without CAD (scratch assay). Percentages of the area closed upon scratch are given. In this assay, a monolayer of cells is mechanically scratched, and the cells migrate back to fill the gap. The speed with which they migrate is a measure of their migratory capacity.
B-D invasion through a basement membrane (number of cells are given that had invaded).
E, colony formation in soft agar (number of colonies). The invasion assay uses a basement membrane in a culture dish. The cells are seeded on top of the membrane, and after a predetermined time (here: 24 h), the number of cells at the bottom of the membrane is determined. This is a measure of the capacity of the cells to invade tissue. Colony formation measures a capacity also termed ‘anchorage-independent growth’. It is a particular capacity of metastatic cells to be able to grow to colonies without support from other cells of solid support (as in a plastic dish). Individual cells are seeded in soft agar to immobilize them and to test whether the single cells can grow and form colonies, a feature of metastatic cells. The number of colonies formed is then measured.
The cell lines and conditions were described in the legend to FIG. 1. zVAD, caspase-inhibitor zVAD-fmk. Ctrl., control cells; the other cell lines are labelled according to their genetic modification (gene deletion; Bcl-XL-overexpression). […]

| Compound | Inhibition of auxin-dependent DDR (γH2AX) [1] | CAD-inhibitory activity against caspase-activated CAD (γH2AX) [2] | CIN (chromosomal missegregation) [3] | numbers of MN (micronuclei) [3] | aggressive growth in vitro (migration, invasion, colony formation) [4] |
| --- | --- | --- | --- | --- | --- |
| O=C1/C(=C/c2ccccn2)N2CCC1CC2 [CBN16, (2Z)-2-(pyridin-2-ylmethylidene)-1-azabicyclo[2.2.2]octan-3-one] | blocked the DDR | CAD-inhibitory activity | – | – | – |
| CC(=O)Nc1nc([N+](=O)[O-])n(-c2ccccc2)n1 [CBN17, N-(5-nitro-1-phenyl-1,2,4-triazol-3-yl)acetamide] | blocked the DDR | CAD-inhibitory activity | – | – | – |
| COc1cc(/C=C2/CCC/C(=C\c3ccc(O)c(OC)c3)C2=O)ccc1O [CBN40, (2E,6Z)-2,6-bis[(4-hydroxy-3-methoxyphenyl)methylidene]cyclo-hexan-1-one] | blocked the DDR | – | – | – | – |
| O=C(Cn1ncc(Cl)c(Cl)c1=O)Nc1ccc(N2CCCC2)cc1 [CBN62, 2-(4,5-dichloro-6-oxopyridazin-1-yl)-N-(4-pyrrolidin-1-ylphenyl)acetamide] | blocked the DDR | CAD-inhibitory activity | – | – | – |
| O=C1NC(=S)NC(=O)C1=Cc1c2ccccc2cc2ccccc12 [CBN65, 5-(anthracen-9-ylmethylidene)-2-sulfanylidene-1,3-diazinane-4,6-dione] | blocked the DDR | CAD-inhibitory activity | – | – | – |
| Cc1nn(Cc2ccc(Cl)c(Cl)c2)c(C)c1NC(=O)CCCS(=O)(=O)c1nc(-c2cccs2)cc(C(F)(F)F)n1 [CBN68, N-[1-[(3,4-dichlorophenyl)methyl]-3,5-dimethylpyrazol-4-yl]-4-[4-thiophen-2-yl-6-(trifluoromethyl)pyrimidin-2-yl]sulfonylbutanamide] | blocked the DDR | CAD-inhibitory activity | – | – | – |
| Clc1ncnc2c1C(c1ccc(Br)cc1)c1c(Cl)ncnc1O2 [CD9, 9-(4-bromophenyl)-7,11-dichloro-2-oxa-4,6,12,14-tetrazatricyclo[8.4.0.0^3,8] tetradeca-1(10),3(8),4,6,11,13-hexaene] | blocked the DDR | CAD-inhibitory activity | – | – | – |
| O=c1c(Cl)c(Cl)cnn1-c1ccccc1 [CD22, 4,5-dichloro-2-phenylpyridazin-3-one] | blocked the DDR | CAD-inhibitory activity | – | – | – |
| O=[N+]([O-])c1ccc(C=Nc2cc(C(F)(F)F)ccc2N2CCOCC2)s1 [MB4, N-[2-morpholin-4-yl-5-(trifluoromethyl)phenyl]-1-(5-nitrothiophen-2-yl)methanimine] | blocked the DDR | CAD-inhibitory activity | – | – | – |
| Cc1ccc(Sc2ccc([N+](=O)[O-])c3nonc23)cc1 [MB26, 4-(4-methylphenyl)sulfanyl-7-nitro-2,1,3-benzoxadiazole] | blocked the DDR | CAD-inhibitory activity | – | – | – |
| COc1cc(/C=C2\CCc3ccccc3C2=O)cc(OC)c1OC [MB33, (2E)-2-[(3,4,5-trimethoxyphenyl)methylidene]-3,4-dihydronaphthalen-1-one] | blocked the DDR | – | – | – | – |
| COc1cc(/C=C2\CCc3ccccc3C2=O)cc(OC)c1 [MB37, (2E)-2-[(3,5-dimethoxyphenyl)methylidene]-3,4-dihydronaphthalen-1-one] | blocked the DDR | – | – | – | – |
| COC(=O)C[C@H](NC(=O)[C@H](C)NC(=O)[C@@H](NC(=O)OCc1ccccc1)C(C)C)C(=O)CF [zVAD-fmk] (Cbz-Val-Ala-Asp(OMe)-CH2F) | – | – | reduced CIN | reduced | less aggressive growth |
